The source of these data is EP0486045A2, “S(+)-Phenyl-alkanoic acids and alpha-amino acid containing complexes” (MEDICE Chem.-Pharm. Fabrik Pütter GmbH & Co. KG, priority 1990, dated 1992).

Values joined by “and” are separate entries in the source; they are usually repeats but may differ in a detail not shown here. Equal entries are not always repeated. Where two headings read alike, the source gives them in different places.

The nature of data set [1]: Pharmacokinetic comparison after a single oral dose of 150 mg S-(+)-Ibuprofen, free acid tablet vs D-Lysinat (Tabelle 5). The following applies: for Ae conj. I / Ae, free 1 / tlag: single oral dose 150 mg S-(+)-Ibuprofen, Mean ± SD.
A further data set can be described thus: clinical. The following applies: human, in vivo, po, 150 mg.
For data set [2] the following is noted: human, in vivo, po, 150 mg.
Data set [3] in a line: Pharmacokinetics of S-(+)-Ibuprofen-D-Lysinat capsules (200 mg S-(+)-Ibuprofen, oral) in 24 subjects.
Another data set relates to primärer Dysmenorrhör. Briefly: Pharmacodynamics: pain intensity on a visual analogue scale (0 - 10), self-rated. The format is in vivo, Probandinnen. From the text: In einer monozentrienden Studie wurde die Pharmakodynamik bei primärer Dysmenorrhör an 24 Probandinnen untersucht. Die Mittelwerte aller Probandinnen als Auswertung einer Schmerzintensitätsskala sind in Tabelle 4 sowie Fig. 4 graphisch dargestellt. Die Schmerzintensität wurde anhand der visuellen Analogskala (einer von 0 - 10 offenen Skala) von den Probandinnen im Rahmen einer Selbstbeurteilung angegeben.
Wie aus Fig. 4 zu ersehen, betrug die mittlere Schmerzintensität zum Zeitpunkt Null 4,7, die analgetische Wirksamkeit setzte innerhalb von 5 Minuten ein und verminderte sich innerhalb der ersten 45 Minuten auf einen Wert von im Mittel 1,65. Die maximale analgetische Wirkung wurde nach 2 Stunden mit einem Wert von 0,36 erreicht. Anschließend stieg die Schmerzintensität bis auf einen Wert von 0,83 nach 6 Stunden wieder langsam an. Die Fig. 4 zeigt die Schmerzintensitätskurve der Probandinnen.

Data set [4] in a line: Adverse drug effects, laboratory parameters and medical follow-up in the study. The format is in vivo, Probandinnen. Conditions: up to 3 x daily 200 mg on 3 days. From the text:
Unerwünschte Arzneimittelwirkungen traten bei keiner Teilnehmerin an der Studie auf.

What is called pKa is the pH at which an ionisable group is half protonated. Read a low pKa as a group that gives up its proton readily. The compound `N=C(N)NCCC[C@H](N)C(=O)O` [Arginin] came in with a pKa in “physchem” of approximately 12.5.

On to `NCCCC[C@H](N)C(=O)O` [Lysin], for which, in the data set “physchem”, the pKa came out at 10.5.

A word on the AUC: it is concentration integrated over time. A higher AUC goes with more exposure. Broadly, the Cmax is the maximum level reached in the sampled fluid or tissue. With `CC(C)Cc1ccc([C@H](C)C(=O)O)cc1` [S-(+)-Ibuprofen, freie Säure, S-(+)-Ibuprofen], in data set [1] (human, in vivo, po, 150 mg), the AUC is 44500 ng·h/mL and the tmax worked out at 2 h. In addition, in data set [1], the “Ae conj. I” value was 8,0 ± 2,9; the “Ae, free 1” value is 0,6 ± 0,2 % of dose; the tlag is 0,5 ± 0,1 h. Further, in the data set “clinical”, the highest level (Cmax) was 10900 ng/mL.

Turning to `CC(C)Cc1ccc([C@H](C)C(=O)O)cc1.NCCCC[C@@H](N)C(=O)O` [S-(+)-Ibuprofen-D-Lysinat], in data set [2], the Cmax is recorded as 23,0 ± 5,2 µg/ml. Besides, the “AUC (Trapez)” value in data set [3] (group A (n 6), mean x̄, capsule single dose, 720 min) is 69,55 mg/lx12h. In addition, the tmax in data set [3] (mean of all subjects, 200 mg capsule oral) is 33 Minuten and 33,59 Minuten. In data set [3] (mean of all subjects, trapezoidal rule, 200 mg capsule oral, 720 min), the AUC is 56,45 mg/1 x 12 h. The “Verzögerungszeit (lag-Time) der Resorption” value in data set [3] (mean, 200 mg capsule oral) was 2,33 Minuten. The “mittlere Schmerzintensität” value is reported as 4,7 with primärer Dysmenorrhör (Zeitpunkt Null (baseline), scale 0 - 10, mean of 24 subjects); 0,36 in the data set on primärer Dysmenorrhör (nach 2 Stunden (maximal analgesic effect), scale 0 - 10); 0,83 in the data set on primärer Dysmenorrhör (nach 6 Stunden, scale 0 - 10); 1,65 with primärer Dysmenorrhör (within the first 45 Minuten, scale 0 - 10). The “Einsetzen der analgetischen Wirksamkeit” value in the data set with primärer Dysmenorrhör (onset of analgesia) was not above 5 Minuten. Also, the “unerwünschte Arzneimittelwirkungen” value in data set [4] (single or repeated intake) is on record as “zu keinen unerwünschten Arzneimittelwirkungen geführt hat mit Ausnahme der bei einer Probandin aufgetretenen pseudoallergischen Reaktion”. For the same compound, the “laborchemische Parameter und ärztliche Nachuntersuchung” value in data set [4] was “ohne pathologischen Befund”. For the same compound, the “Ae conj. I” value in data set [1] is on record as 9,3 ± 5,4. In addition, the “Ae, free 1” value in data set [1] is 0,6 ± 0,5 % of dose. For the same compound, the tlag in data set [1] is 0,1 ± 0,02 h.
